The assay addresses T1, GPR40 of human origin (Homo sapiens, UniProt O14842).
T1 construct: expressed in transfected cells
Put plainly: Agonist action on GPR40 of human origin (Ca2+ fluorescence in a CHO cell strain stably expressing GPR40). The following applies: Ca2+ concentration fluctuation, fluorescence intensity. It counts as cell-based. Here is the method:
A CHO cell strain stably expressing GPR40 of human origin was used to determine the agonist action of a subject compound. This cell strain was seeded in a clear bottom 96 well plate at 4×10^4 cells/100 μL/well. The cell strain was cultured in a CO2 incubator overnight using a Ham's F-12 medium containing a 10% fetal bovine serum, 100 U/mL penicillin, 0.1 mg/mL streptomycin, and 400 μg/mL Geneticin. Calcium 4 Assay Kit (Molecular Devices) was used as a fluorescent calcium indicator. One mL of 77 mg/mL probenecid (Invitrogen) was added to 100 mL of a calcium indicator solution to prepare a solution (loading solution) mixed with a 20 mM HEPES-containing Hanks' balanced salt solution (HBSS) in equal proportions. 200 μL of the loading solution was added to the cells from which the culture solution was removed, and the cells were cultured in a CO2 incubator for 1 hour. The subject compound was diluted with a 20 mM HEPES-containing HBSS and was added to the cells by 50 μL, and the fluctuation of the Ca^2+ concentration was measured by an intracellular ion analyzer. The EC50 value of the subject compound was calculated using the dose-response curve of fluorescence intensity variation.
T1 sequence (O14842 whole entry): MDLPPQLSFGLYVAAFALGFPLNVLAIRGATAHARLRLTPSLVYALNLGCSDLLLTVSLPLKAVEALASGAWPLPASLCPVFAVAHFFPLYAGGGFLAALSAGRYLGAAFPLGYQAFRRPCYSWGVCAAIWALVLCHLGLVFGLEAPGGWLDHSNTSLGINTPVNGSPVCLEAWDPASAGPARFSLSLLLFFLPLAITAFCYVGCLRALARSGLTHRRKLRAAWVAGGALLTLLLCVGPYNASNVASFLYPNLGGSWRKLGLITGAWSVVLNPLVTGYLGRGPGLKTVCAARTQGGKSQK
The EC50 is the concentration that produces a half-maximal response. On to `Cc1c(COc2ccc(-c3cc(O)no3)cc2)cccc1-c1cnc(OCCC(C)(C)O)c(C)c1C` [Example 46, 5-[4-[[3-[6-(3-hydroxy-3-methylbutoxy)-4,5-dimethylpyridin-3-yl]-2-methylphenyl]methoxy]phenyl]-1,2-oxazol-3-ol], for which the concentration for a half-maximal effect (EC50) is less than 300 nM.

The molecule `Cc1nc(OCCC(C)(C)O)ccc1-c1cccc(COc2ccc(-c3cc(O)no3)cc2)c1C` [Example 39, 5-(4-((3-(6-(3-hydroxy-3-methylbutoxy)-2-methylpyridin-3-yl)-2-methylphenyl)methoxy)phenyl)isoxazol-3-ol] showed an EC50 of less than 300 nM.

`Cc1cc(OCC[C@@H](C)O)cc(C)c1-c1cccc2c1CCC2Oc1ccc(-c2cc(O)no2)cc1` (stereo partly drawn) [Example 36, 5-[4-[[4-[4-[(3R)-3-hydroxybutoxy]-2,6-dimethylphenyl]-2,3-dihydro-1H-inden-1-yl]oxy]phenyl]-1,2-oxazol-3-ol] had an EC50 of less than 300 nM.

Molecule `Cc1cc(OCCCN2CCCC2=O)cc(C)c1-c1cccc(COc2ccc(-c3cc(O)no3)cc2)c1` [Example 43, 1-[3-[4-[3-[[4-(3-hydroxy-1,2-oxazol-5-yl)phenoxy]methyl]phenyl]-3,5-dimethylphenoxy]propyl]pyrrolidin-2-one] displayed an EC50 of less than 300 nM.

In turn, `Cc1cc(OCCCS(C)(=O)=O)cc(C)c1-c1cccc(COc2ccc(-c3cc(O)no3)cc2)c1` [Example 42, 5-[4-[[3-[2,6-dimethyl-4-(3-methylsulfonylpropoxy)phenyl]phenyl]methoxy]phenyl]-1,2-oxazol-3-ol] returned an EC50 of less than 300 nM.

Regarding `N#Cc1cccc2c1CCC2Oc1ccc(-c2cc(O)no2)cc1` (stereo not drawn) [Example 12, 5-(4-(4-cyano-2,3-dihydro-1H-inden-1-yloxy)phenyl)isoxazol-3-ol], the EC50 lay in the range of 300 to 3000 nM.

On to `Oc1cc(-c2ccc(OC3CCc4c(-c5ccc6c(c5)OCCO6)cccc43)cc2)on1` (stereo not drawn) [Example 34, 5-(4-(2,3-dihydro-4-(1,4-benzodioxan-6-yl)-1H-inden-1-yloxy)phenyl)isoxazol-3-ol], for which the EC50 was 300 to 3000 nM.

`COc1ncccc1-c1cccc2c1CCC2Oc1ccc(-c2cc(O)no2)cc1` (stereo not drawn) [Example 23, 5-(4-(2,3-dihydro-4-(2-methoxypyridin-3-yl)-1H-inden-1-yloxy)phenyl)isoxazol-3-ol] gave an EC50 of less than 300 nM.

In turn, `Oc1cc(-c2ccc(OC3CCc4c(OCc5ccccc5C(F)(F)F)cccc43)cc2)on1` (stereo not drawn) [Example 29, 5-(4-(2,3-dihydro-4-(2-(trifluoromethyl)benzyloxy)-1H-inden-1-yloxy)phenyl)isoxazol-3-ol] had an EC50 of 300 to 3000 nM.

In the case of `Oc1cc(-c2ccc(OC3CCc4c(Oc5ccccc5)cccc43)cc2)on1` (stereo not drawn) [Example 26, 5-(4-(2,3-dihydro-4-phenoxy-1H-inden-1-yloxy)phenyl)isoxazol-3-ol], the EC50 was less than 300 nM.

`Cc1cc(OCCC(C)(C)O)cc(C)c1-c1cccc2c1CCC2Oc1ccc(-c2cc(O)no2)cc1` (stereo not drawn) [Example 37, 5-[4-[[4-[4-(3-hydroxy-3-methylbutoxy)-2,6-dimethylphenyl]-2,3-dihydro-1H-inden-1-yl]oxy]phenyl]-1,2-oxazol-3-ol]: the EC50 was less than 300 nM.

Regarding `Oc1cc(-c2ccc(OC3CCc4c(-c5ccc6cc[nH]c6c5)cccc43)cc2)on1` (stereo not drawn) [Example 35, 5-(4-(2,3-dihydro-4-(1H-indol-6-yl)-1H-inden-1-yloxy)phenyl)isoxazol-3-ol], the concentration giving a half-maximal response (EC50) lay in the range of 300 to 3000 nM.

`Oc1cc(-c2ccc(OC3Cc4ccccc4C3)cc2)on1` [Example 2, 5-(4-(2,3-dihydro-1H-inden-2-yloxy)phenyl)isoxazol-3-ol] displayed a concentration giving a half-maximal response (EC50) of less than 300 nM.

Molecule `Cc1cc(OCCC(C)(C)O)nc(C)c1-c1cccc(COc2ccc(-c3cc(O)no3)cc2)c1` [Example 41, 5-(4-((3-(2,4-dimethyl-6-(3-hydroxy-3-methylbutoxy)pyridin-3-yl)phenyl)methoxy)phenyl)isoxazol-3-ol] came in with an EC50 of less than 300 nM.

With `Cc1cc(OCCC(C)(C)O)nc(C)c1-c1cccc(COc2ccc(-c3cc(O)no3)cc2)c1C` [Example 40, 5-(4-((3-(2,4-dimethyl-6-(3-hydroxy-3-methylbutoxy)pyridin-3-yl)-2-methylphenyl)methoxy)phenyl)isoxazol-3-ol], the EC50 is less than 300 nM.

For `Oc1cc(-c2ccc(OC3CCc4c(Cc5ccccc5)cccc43)cc2)on1` (stereo not drawn) [Example 30, 5-(4-(4-benzyl-2,3-dihydro-1H-inden-1-yloxy)phenyl)isoxazol-3-ol], the half-maximal effective concentration (EC50) is less than 300 nM.

`Cc1cc(OCCC(C)(C)O)ncc1-c1cccc(COc2ccc(-c3cc(O)no3)cc2)c1C` [Example 38, 5-(4-((3-(6-(3-hydroxy-3-methylbutoxy)-4-methylpyridin-3-yl)-2-methylphenyl)methoxy)phenyl)isoxazol-3-ol] showed an EC50 of less than 300 nM.

With `Oc1cc(-c2ccc(OC3CCc4c3ccc(Cl)c4Cl)cc2)on1` (stereo not drawn) [Example 19, 5-(4-(4,5-dichloro-2,3-dihydro-1H-inden-1-yloxy)phenyl)isoxazol-3-ol], the EC50 lay within 300 to 3000 nM.

For the molecule `Cc1cc(-c2cccc(COc3ccc(-c4cc(O)no4)cc3)c2C)c(C)nc1OCCC(C)(C)O` [Example 47, 5-[4-[[3-[6-(3-hydroxy-3-methylbutoxy)-2,5-dimethylpyridin-3-yl]-2-methylphenyl]methoxy]phenyl]-1,2-oxazol-3-ol], the concentration for a half-maximal effect (EC50) is less than 300 nM.

`Oc1cc(-c2ccc(OC3CCc4c(Cl)cccc43)cc2)on1` (stereo not drawn) [Example 11, 5-(4-(4-chloro-2,3-dihydro-1H-inden-1-yloxy)phenyl)isoxazol-3-ol]: the EC50 is less than 300 nM.

Turning to `COc1cccc(-c2cccc3c2CCC3Oc2ccc(-c3cc(O)no3)cc2)c1` (stereo not drawn) [Example 21, 5-(4-(2,3-dihydro-4-(3-methoxyphenyl)-1H-inden-1-yloxy)phenyl)isoxazol-3-ol], the EC50 was less than 300 nM.

In turn, `Cc1cc(OC[C@H](O)CO)cc(C)c1-c1cccc(COc2ccc(-c3cc(O)no3)cc2)c1C` [Example 44, (2R)-3-[4-[3-[[4-(3-hydroxy-1,2-oxazol-5-yl)phenoxy]methyl]-2-methylphenyl]-3,5-dimethylphenoxy]propane-1,2-diol] yielded an EC50 of less than 300 nM.

With `Oc1cc(-c2ccc(OC3CCc4cc(Cl)ccc43)cc2)on1` (stereo not drawn) [Example 13, 5-(4-(5-chloro-2,3-dihydro-1H-inden-1-yloxy)phenyl)isoxazol-3-ol], the EC50 was 300 to 3000 nM.

`Oc1cc(-c2ccc(NC3CCc4cc(Cl)ccc43)cc2)on1` (stereo not drawn) [Example 31, 5-(4-(5-chloro-2,3-dihydro-1H-inden-1-ylamino)phenyl)isoxazol-3-ol] gave a half-maximal effective concentration (EC50) of 300 to 3000 nM.

For `Oc1cc(-c2ccc(OC3CCc4cc(Br)ccc43)cc2)on1` (stereo not drawn) [Example 14, 5-(4-(5-bromo-2,3-dihydro-1H-inden-1-yloxy)phenyl)isoxazol-3-ol], the EC50 was in the range of 300 to 3000 nM.

`Cc1cc(OCCC(C)(C)O)nc(C)c1-c1cccc2c1CCC2Oc1ccc(-c2cc(O)no2)cc1` (stereo not drawn) [Example 24, 5-(4-(4-(6-(3-hydroxy-3-methylbutoxy)-2,4-dimethylpyridin-3-yl)-2,3-dihydro-1H-inden-1-yloxy)phenyl)isoxazol-3-ol] returned a 50% effective concentration (EC50) of less than 300 nM.

In turn, `Cc1cc(OCCC(C)(C)O)cc(C)c1-c1cccc(COc2ccc(-c3cc(O)no3)cc2)c1C` [Example 45, 5-[4-[[3-[4-(3-hydroxy-3-methylbutoxy)-2,6-dimethylphenyl]-2-methylphenyl]methoxy]phenyl]-1,2-oxazol-3-ol] yielded an EC50 of less than 300 nM.

The values are drawn from US8455500B2, “3-hydroxy-5-arylisoxazole derivative” (Mochida Pharmaceutical Co., Ltd., priority 2009, dated 2013).
